Test results: PubChem BioAssay (NCI)
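Method: 48-hour compound exposure of cells in 96-well plates, five concentrations, linear interpolation of endpoints. GI50: concentration for 50% inhibition of growth. TGI: concentration producing complete growth inhibition.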

Columns and labels:
Assay in all cases: NCI anticancer screen, dose series, 48 h
[1] = tested on: M14 melanoma
[2] = tested on: HL-60(TB) leukemia
[3] = tested on: OVCAR-8 ovarian
[4] = tested on: HCT-116 colon
[5] = tested on: TK-10 renal
[6] = tested on: LOX IMVI melanoma
[7] = tested on: A498 renal
[8] = tested on: SNB-75 CNS
[9] = tested on: RPMI-8226 leukemia
[10] = tested on: HT29 colon
[11] = tested on: ACHN renal
[12] = tested on: OVCAR-4 ovarian
[13] = tested on: SF-268 CNS
[14] = tested on: SF-295 CNS
[15] = tested on: SN12C renal
[16] = tested on: NCI-H460 lung
[17] = tested on: NCI-H23 lung
[18] = tested on: HOP-92 NSCLC
[19] = tested on: PC-3 prostate
[20] = tested on: 786-0 renal
[21] = tested on: SW-620 colon
[22] = tested on: A549 NSCLC
[23] = tested on: SR leukemia
[24] = tested on: CCRF-CEM leukemia
[25] = tested on: IGROV1 ovarian
[26] = tested on: MCF7 breast
[27] = tested on: OVCAR-3 ovarian
[28] = tested on: EKVX NSCLC
[29] = tested on: SNB-19 CNS
[30] = tested on: HOP-62 NSCLC
[31] = tested on: MALME-3M melanoma
[32] = tested on: T-47D breast
[33] = tested on: NCI-H522 lung
[34] = tested on: SK-MEL-28 melanoma
[35] = tested on: MOLT-4 leukemia
[36] = tested on: SK-MEL-2 melanoma
[37] = tested on: KM12 colon
[38] = tested on: SK-OV-3 ovarian
[39] = tested on: BT-549 breast
[40] = tested on: OVCAR-5 ovarian
[41] = tested on: CAKI-1 renal
[42] = tested on: MDA-MB-435
[43] = tested on: UACC-62 melanoma
[44] = tested on: DU-145 prostate
[45] = tested on: HS 578T breast
[46] = tested on: K-562 leukemia
[47] = tested on: UACC-257 melanoma
[48] = tested on: COLO 205 colon
[49] = tested on: SK-MEL-5 melanoma
[50] = tested on: MDA-MB-231 breast
[51] = tested on: UO-31 renal
[52] = tested on: U251 CNS
[53] = tested on: NCI/ADR-RES ovarian
[54] = tested on: NCI-H226 lung
[55] = tested on: HCT-15 colon
[56] = tested on: HCC-2998 colon
[57] = tested on: SF-539 CNS
[58] = tested on: RXF 393 renal

C/C(=C(\c1ccc(O)cc1)c1ccc(OCCN2CCCCCC2)cc1)c1ccc(Cl)cc1
GI50 [1]: 1.6 µM
TGI [1]: 6.17 µM
GI50 [2]: 5.98 µM
TGI [2]: 14.3 µM
GI50 [3]: 6.94 µM
TGI [3]: 13.7 µM
GI50 [4]: 2.21 µM
TGI [4]: 9.11 µM
GI50 [5]: 6.99 µM
TGI [5]: 14 µM
GI50 [6]: 1.66 µM
TGI [6]: 6.55 µM
GI50 [7]: 8.32 µM
TGI [7]: 14.9 µM
GI50 [8]: 6.02 µM
TGI [8]: 12 µM
GI50 [9]: 1.86 µM
TGI [9]: 31 µM
GI50 [10]: 1.26 µM
TGI [10]: 4.59 µM
GI50 [11]: 5.26 µM
TGI [11]: 10.8 µM
GI50 [12]: 4.83 µM
TGI [12]: 10.6 µM
GI50 [13]: 5.8 µM
TGI [13]: 12.7 µM
GI50 [14]: 4.79 µM
TGI [14]: 10.3 µM
GI50 [15]: 5.86 µM
TGI [15]: 11.9 µM
GI50 [16]: 2.2 µM
TGI [16]: 7.27 µM
GI50 [17]: 5.52 µM
TGI [17]: 11.3 µM
GI50 [18]: 2.07 µM
TGI [18]: 9.62 µM
GI50 [19]: 2.8 µM
TGI [19]: 11.1 µM
GI50 [20]: 2.15 µM
TGI [20]: 8.4 µM
GI50 [21]: 3.17 µM
TGI [21]: 9.28 µM
GI50 [22]: 6.27 µM
TGI [22]: 18.4 µM
GI50 [23]: 1.28 µM
TGI [23]: 4.7 µM
GI50 [24]: 10.8 µM
TGI [24]: 45.8 µM
GI50 [25]: 5.79 µM
TGI [25]: 11.9 µM
GI50 [26]: 0.0385 µM
TGI [26]: 3.81 µM
GI50 [27]: 6.11 µM
TGI [27]: 12.1 µM
GI50 [28]: 6.67 µM
TGI [28]: 12.8 µM
GI50 [29]: 6.27 µM
TGI [29]: 12.3 µM
GI50 [30]: 7.03 µM
TGI [30]: 15.7 µM
GI50 [31]: 4.52 µM
TGI [31]: 9.89 µM
GI50 [32]: 1.19 µM
TGI [32]: 11.1 µM
GI50 [33]: 7.43 µM
TGI [33]: 15 µM
GI50 [34]: 4.94 µM
TGI [34]: 10.4 µM
GI50 [35]: 1.69 µM
TGI [35]: 7.25 µM
GI50 [36]: 7.59 µM
TGI [36]: 14.5 µM
GI50 [37]: 3.37 µM
TGI [37]: 9.28 µM
GI50 [38]: 7.74 µM
TGI [38]: 15 µM
GI50 [39]: 6.12 µM
TGI [39]: 13 µM
GI50 [40]: 5.78 µM
TGI [40]: 11.5 µM
GI50 [41]: 5.39 µM
TGI [41]: 11 µM
GI50 [42]: 5.36 µM
TGI [42]: 11.1 µM
GI50 [43]: 6.35 µM
TGI [43]: 12.4 µM
GI50 [44]: 7.05 µM
TGI [44]: 13.2 µM
GI50 [45]: 5.06 µM
TGI [45]: 14.1 µM
GI50 [46]: 1.32 µM
TGI [46]: 6.03 µM
GI50 [47]: 7.39 µM
TGI [47]: 14.8 µM
GI50 [48]: 1.21 µM
TGI [48]: 2.99 µM
GI50 [49]: 6.48 µM
TGI [49]: 12.5 µM
GI50 [50]: 7.02 µM
TGI [50]: 13.3 µM
GI50 [51]: 4.53 µM
TGI [51]: 9.88 µM
GI50 [52]: 3.28 µM
TGI [52]: 13.4 µM
GI50 [53]: 5.57 µM
TGI [53]: 11.5 µM
GI50 [54]: 5.39 µM
TGI [54]: 12.2 µM
GI50 [55]: 1.26 µM
TGI [55]: 3.95 µM
GI50 [56]: 2.43 µM
TGI [56]: 8.05 µM
GI50 [57]: 4.67 µM
TGI [57]: 10 µM

C#C[C@]1(O)CC[C@H]2[C@@H]3CC=C4c5sc(Nc6cccc(F)c6)nc5CC[C@]4(C)[C@H]3CC[C@@]21C
GI50 [1]: 1.31 µM
TGI [1]: 5.87 µM
GI50 [2]: 0.618 µM
TGI [2]: 2.89 µM
GI50 [3]: 3.04 µM
TGI [3]: 87.2 µM
GI50 [4]: 0.982 µM
TGI [4]: 2.35 µM
GI50 [5]: 3.76 µM
TGI [5]: 15.7 µM
GI50 [7]: 0.368 µM
TGI [7]: 2.03 µM
GI50 [8]: 0.31 µM
TGI [8]: 6.08 µM
GI50 [9]: 0.204 µM
TGI [9]: 0.615 µM
GI50 [10]: 1.52 µM
TGI [10]: 6.06 µM
GI50 [11]: 1.35 µM
TGI [11]: 4.22 µM
GI50 [12]: 2.59 µM
TGI [12]: 16.3 µM
GI50 [13]: 1.62 µM
TGI [13]: 7.5 µM
GI50 [14]: 0.208 µM
TGI [14]: 0.499 µM
GI50 [15]: 3.33 µM
TGI [15]: 13.1 µM
GI50 [16]: 1.16 µM
TGI [16]: 3.02 µM
GI50 [17]: 1.95 µM
TGI [17]: 8.42 µM
GI50 [18]: 2.19 µM
TGI [18]: 7.62 µM
GI50 [19]: 0.659 µM
TGI [19]: 12.3 µM
GI50 [20]: 0.371 µM
TGI [20]: 2.11 µM
GI50 [21]: 1.72 µM
TGI [21]: 4.5 µM
GI50 [22]: 2.73 µM
TGI [22]: 20.3 µM
GI50 [23]: 0.34 µM
TGI [23]: 2.96 µM
GI50 [24]: 0.534 µM
TGI [24]: 4.16 µM
GI50 [25]: 1.95 µM
TGI [25]: 7.2 µM
GI50 [26]: 0.963 µM
TGI [26]: 3.69 µM
GI50 [28]: 1.65 µM
TGI [28]: 15.2 µM
GI50 [29]: 1.49 µM
TGI [29]: 3.88 µM
GI50 [30]: 2.15 µM
TGI [30]: 13.6 µM
GI50 [31]: 1.49 µM
TGI [31]: 4.71 µM
GI50 [32]: 2.14 µM
TGI [32]: 13.8 µM
GI50 [34]: 0.5 µM
TGI [34]: 2.06 µM
GI50 [35]: 0.306 µM
TGI [35]: 0.947 µM
GI50 [36]: 1.1 µM
TGI [36]: 4.45 µM
GI50 [37]: 1.89 µM
TGI [37]: 5.69 µM
GI50 [38]: 1.86 µM
TGI [38]: 10.1 µM
GI50 [39]: 0.456 µM
TGI [39]: 3.55 µM
GI50 [40]: 1.76 µM
TGI [40]: 4.47 µM
GI50 [41]: 1.03 µM
TGI [41]: 10.8 µM
GI50 [42]: 1.65 µM
TGI [42]: 7.5 µM
GI50 [43]: 1.25 µM
TGI [43]: 3.87 µM
GI50 [44]: 1.49 µM
TGI [44]: 3.97 µM
GI50 [58]: 0.0653 µM
TGI [58]: 0.328 µM
GI50 [45]: 0.364 µM
TGI [45]: 3.7 µM
GI50 [46]: 0.677 µM
TGI [46]: 3.54 µM
GI50 [47]: 2.31 µM
TGI [47]: 17 µM
GI50 [48]: 1.83 µM
TGI [48]: 4.63 µM
GI50 [49]: 1.6 µM
TGI [49]: 3.22 µM
GI50 [50]: 1.94 µM
TGI [50]: 5.49 µM
GI50 [51]: 0.937 µM
TGI [51]: 2.79 µM
GI50 [52]: 0.821 µM
TGI [52]: 3.88 µM
GI50 [53]: 2.32 µM
TGI [53]: 7.61 µM
GI50 [55]: 1.45 µM
TGI [55]: 4.26 µM
GI50 [56]: 2.41 µM
TGI [56]: 6.46 µM
GI50 [57]: 0.221 µM
TGI [57]: 1.06 µM
